PMC7156724, “Potent BRD4 inhibitor suppresses cancer cell-macrophage interaction” (Nature Communications, 2020)
Several values for one entry are separate records, joined by “and”; a condition that tells them apart may be missing. Equal entries are not always repeated.

Tests used:
[1] = system: phosphorylated BRD4 and c-MYC; test: Western blot of p-BRD4, BRD4 and c-MYC in solid tumor cell lines; assay type: cell-based, human; conditions: 50 nM, 24 h
Description: (§1) Fig. 2 NHWD-870 inhibited BRD4 phosphorylation and c-MYC expression, and suppressed cell growth. a Representative western blot analysis of p-BRD4 (s484/488), BRD4, c-MYC, and GAPDH after treatment of MDA-MB231, SUM159, A2780 ES-2, and H526 cells with JQ-1 or NHWD-870 at the indicated concentrations for 24 h. GAPDH served as the loading control. Selected from three independent experiments. b MTT assays of H526, A2780, ES-2, and MDA-MB231 cells treated with JQ-1 or NHWD-870 at the indicated concentrations for 5 days. Data are presented as mean ± SEM from three independent experiments. c, d Clonogenic assays of H526, A2780, ES-2 and MDA-MB231 cells treated with 250 nM JQ-1 or NHWD-870 for 5 days. Shown are representative images (c) and quantification of colonies (d). […] Shown are representative images (e) and quantification of relative colony sizes (f). Scale bar, 50 μm. Data are presented as mean ± SEM from five independent experiments. p values were calculated using two-tailed, unpaired t tests in this figure. **p < 0.01; ***p < 0.001. Source data are provided as a Source Data file. […]
4. Protein extraction and w estern blot anal ysis. Freshly dissected unfixed tissue was homogenized in lysis buffer. The lysates were centrifuged at 13,000g for 10 minutes at 4°C. Supernatants were collected and determined with a Bradford Protein Assay kit (Bio-Rad, Hercules, CA). The cell lysates were subjected to SDS-PAGE followed by immunoblotting (Immobilon P; Millipore, Milford, MA) with specific antibodies followed by detection using an enhanced chemilumine scence kit (Amersham Life Science, Arlington Heights, IL). […]

[2] = system: NCI-H211 small cell lung cancer (SCLC) cells; test: AlamarBlue assay, NCI-H211; assay type: cell-based; conditions: for Cellular activity in SCLCs (H211), alamarBlue: Fig.1e, replicates
Description: (§2) 3. AlamarBlue assay. AlamarBlue was made by resazurin sodium salt (Sigma, Cat
(§3) # 199303) dissolved in PBS.
(§4) NCI-H211, MDA-MB231 and A375 cells were plated in 96-well plates at approximately 30% confluence and left overnight to adhere. In the following day, […]
(§5) of treatment, 10 μl AlamarBlue reagent (0.3 mg/ml) was added to each well, and after 18h, the florescence intensity in each well was measured using a top-reading fluorescent plate reader with excitation at 530 nm and emission at 590 nm. […]

[3] = system: H526 cells; test: Clonogenic (colony formation) assay, H526; assay type: cell-based, human; conditions: H526, 250 nM, 5 days
Description: as §1
(§6) 5. Colony formation assay. Cells were seeded in 6-well plates at 3,000 cells/well […]
(§7) every week. […] Colony numbers were calculated with imageJ version

[4] = system: MDA-MB231 cells; test: Clonogenic (colony formation) assay, MDA-MB231; assay type: cell-based, human; conditions: MDA-MB231, 250 nM, 5 days
Description: as §1, §6, §7

[5] = system: BRD4 binding to the HIF1α promoter; set-up: method as in PMID 30224758, PMID 29054992; conditions: MDA-MB 231 cells ref 45, 46; cited from earlier work
[6] = system: MDA-MB231 triple negative breast cancer (TNBC) cells; test: AlamarBlue assay, MDA-MB231; assay type: cell-based, human; conditions: for Cellular activity in TNBCs (MDA-MB231), alamarBlue: Fig.1f, replicates
Description: as §2, §3, §4, §5

[7] = system: ES-2 cells; test: Clonogenic (colony formation) assay, ES-2; assay type: cell-based, human; conditions: ES-2, 250 nM, 5 days
Description: as §1, §6, §7

[8] = system: A2780 cells; test: Clonogenic (colony formation) assay, A2780; assay type: cell-based, human; conditions: A2780, 250 nM, 5 days
Description: as §1, §6, §7

With `Cc1sc2c(c1C)C(c1ccc(Cl)cc1)=N[C@@H](CC(=O)OC(C)(C)C)c1nnc(C)n1-2` [JQ1, reference compound] the “effect on phosphorylated BRD4 and c-MYC (western blot)” value [1] was “no effect”, the IC50 ([2]; 72 h treatment, nM, read-out: IC50, cellular activity in NCI-H211 (alamarBlue)) was 102 nM and the “Cellular activity in SCLCs (H211), alamarBlue” value (“Cellular activity in SCLCs” for short) ([2]; concentration 0.0169701) was 8.89 and 26.86. For the same molecule, the “Cellular activity in SCLCs” value ([2]; concentration 0.0398488) was 1.52 and 21.49, the “Cellular activity in SCLCs” value ([2]; concentration 0.137272) was 0.75 and 21.87 and the “Cellular activity in SCLCs” value ([2]; concentration 0.614394) was 3.74 and 1.29. For the same molecule, the “Cellular activity in SCLCs” value ([2]; concentration 1.09152) was 4.01 and 4.44, the “Cellular activity in SCLCs” value ([2]; concentration 1.56864) was 8.74 and 4.85 and the “Cellular activity in SCLCs” value ([2]; concentration 2.04576) was 60.7 and 49.9. The “Cellular activity in SCLCs” value ([2]; concentration 3) was 94.26 and 94.75, the “Cellular activity in SCLCs” value ([2]; concentration column prints 2.52288) was 94.02 and 94.2 and the “Clone Number (clonogenic assay)” value [3] was 627 and 705 and 686 and 632 and 603. The “Clone Number (clonogenic assay)” value [4] was 1294 and 1205 and 1074 and 1155 and 1020, the “BRD4 binding to the HIF1α promoter (ChIP-seq)” value [5] was “reduced BRD4 binding to the HIF1α promoter” and the IC50 ([6]; 72 h treatment, nM, read-out: IC50, cellular activity in MDA-MB231 (alamarBlue)) was 65 nM. The “Cellular activity in TNBCs (MDA-MB231), alamarBlue” value (“Cellular activity in TNBCs” for short) ([6]; concentration 0.15) was 0.75 and 21.87, the “Cellular activity in TNBCs” value ([6]; concentration 0.6) was 3.74 and 1.29 and the “Cellular activity in TNBCs” value ([6]; concentration 1) was 19.01 and 19.44. For the same molecule, the “Cellular activity in TNBCs” value ([6]; concentration 1.5) was 38.74 and 34.85, the “Cellular activity in TNBCs” value ([6]; concentration 2) was 60.7 and 49.9 and the “Cellular activity in TNBCs” value ([6]; concentration 2.5) was 94.02 and 94.2. For the same molecule, the “Cellular activity in TNBCs” value ([6]; concentration 3) was 94.26 and 94.75, the “Cellular activity in TNBCs” value ([6]; concentration -0.3) was 1.52 and 21.49 and the “Cellular activity in TNBCs” value ([6]; concentration -0.9) was 8.89 and 26.86. The “Clone Number (clonogenic assay)” value [7] was 575 and 505 and 619 and 501 and 621 and the “Clone Number (clonogenic assay)” value [8] was 839 and 794 and 803 and 802 and 753.
